Laboratory results published in US6537965B1, “Amino-terminal modified parathyroid hormone (PTH) analogs” (The General Hospital Corporation, priority 1998, dated 2003).

Assays:
hPTH-1 receptors [1] = target: T1, hPTH-1 receptors (Homo sapiens, UniProt Q03431); assay: cAMP accumulation (adenylyl cyclase activation) in HKRK C53 cells; type: cell-based; set-up: expressed in transfected cells; settings: HKRK C53 cells; average level
T1 sequence (Q03431 27-593): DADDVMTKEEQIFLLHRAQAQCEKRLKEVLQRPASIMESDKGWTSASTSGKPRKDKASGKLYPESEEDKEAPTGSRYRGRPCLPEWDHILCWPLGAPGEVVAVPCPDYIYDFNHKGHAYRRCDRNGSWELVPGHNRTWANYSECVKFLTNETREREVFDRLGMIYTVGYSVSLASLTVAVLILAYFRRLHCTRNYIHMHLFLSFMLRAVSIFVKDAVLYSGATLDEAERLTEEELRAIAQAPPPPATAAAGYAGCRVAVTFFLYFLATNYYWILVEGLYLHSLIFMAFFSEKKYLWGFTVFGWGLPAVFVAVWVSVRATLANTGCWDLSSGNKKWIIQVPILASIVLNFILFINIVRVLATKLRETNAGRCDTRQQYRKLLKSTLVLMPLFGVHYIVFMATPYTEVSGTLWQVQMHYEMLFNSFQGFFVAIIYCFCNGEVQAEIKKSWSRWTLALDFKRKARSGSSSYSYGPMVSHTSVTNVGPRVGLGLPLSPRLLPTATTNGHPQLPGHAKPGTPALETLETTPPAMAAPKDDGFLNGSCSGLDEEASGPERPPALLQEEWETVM
From the text: (§1) The following cell lines were used in these studies. HKRK C53 subclones of LLC-PKI porcine renal epithelial cells which stably express human PTH-1 receptors (150,000 receptors/cell). SaOS-2 cells are transformed human osteosarcoma cells which express relatively few (10,000-20,000 per cell) human PTH-1 receptors. HPR2-7 cells are subclones of LLC-PK1 which express approximately 250,000 recombinant human PTH-2 receptors per cell. […] The HPR2-27 and HPR2-22 cell lines were created in the same fashion as the HKRK cells but employing instead type 2 PTH receptor cDNA using the transfection technique of (Bringhurst, F. R., et al., Endocrinology 132(5):2090-2098 (1993); Guo, J., et al., Endocrinology 136(9):3884-3891 (1995)).
(§2) Intracellular cAMP accumulation, PLC activation and PTHR binding affinity were measured as previously reported (Bringhurst, F. R., et al., Endocrinology 132(5):2090-2098 (1993); Guo, J., et al., Endocrinology 136(9):3884-3891 (1995)). Intracellular cAMP accumulation was measured in extracts of cells that were exposed to human PTH peptides in the presence of isobutylmethyxanthine (IBMX, 1 mM) at 37° C. for 15 min. After terminating the reactions by aspiration and freezing in liquid nitrogen, cell monolayers were extracted with 50 mM HCl and cAMP was measured using a radioimmunoassay kit (Dupont-New England Nuclear, Boston, Mass.).

hPTH-1 receptors [2] = target: T1, hPTH-1 receptors; assay: IP3 formation in HKRK C53 cells; type: cell-based; set-up: expressed in transfected cells; settings: average level
From the text: (§3) The following cell lines were used in these studies. HKRK C53 subclones of LLC-PKI porcine renal epithelial cells which stably express human PTH-1 receptors (150,000 receptors/cell). SaOS-2 cells are transformed human osteosarcoma cells which express relatively few (10,000-20,000 per cell) human PTH-1 receptors. HPR2-7 cells are subclones of LLC-PK1 which express approximately 250,000 recombinant human PTH-2 receptors per cell. HKRK-B7 cells are subclones of LLC-PK which stably express approximately 1 million hPTH-1 receptors per cell. HPR2-22 cells are subclones of LLC-PK1 which express 1.5 million recombinant hPTH-2 receptors per cell. The HPR2-27 and HPR2-22 cell lines were created in the same fashion as the HKRK cells but employing instead type 2 PTH receptor cDNA using the transfection technique of (Bringhurst, F. R., et al., Endocrinology 132(5):2090-2098 (1993); Guo, J., et al., Endocrinology 136(9):3884-3891 (1995)).
PLC was activated by PTH agonists in the presence of 30 mM LiCl at 37° C. for 30 min after 16 hr of labeling with [^3H]myo-inositol (3uCi/ml) in serum-free medium containing 0.1% bovine serum albumin. The reactions were stopped by rapid aspiration and addition of cold 5% TCA. Water-soluble radiolabeled inositol trisphosphate (IP3) was isolated after ether extraction by ion-exchange chromatography (Guo, J., et al., Endocrinology 136(9):3884-3891 (1995)). […]

hPTH-2 receptors [3] = target: T2, hPTH-2 receptors (Homo sapiens, UniProt P49190); assay: cAMP measurements in clonal LLC-PK1 cells (HPR2-7); type: cell-based; settings: HPR2-7 cells; average level
T2 construct: expressed in transfected cells
T2 sequence (P49190 25-550): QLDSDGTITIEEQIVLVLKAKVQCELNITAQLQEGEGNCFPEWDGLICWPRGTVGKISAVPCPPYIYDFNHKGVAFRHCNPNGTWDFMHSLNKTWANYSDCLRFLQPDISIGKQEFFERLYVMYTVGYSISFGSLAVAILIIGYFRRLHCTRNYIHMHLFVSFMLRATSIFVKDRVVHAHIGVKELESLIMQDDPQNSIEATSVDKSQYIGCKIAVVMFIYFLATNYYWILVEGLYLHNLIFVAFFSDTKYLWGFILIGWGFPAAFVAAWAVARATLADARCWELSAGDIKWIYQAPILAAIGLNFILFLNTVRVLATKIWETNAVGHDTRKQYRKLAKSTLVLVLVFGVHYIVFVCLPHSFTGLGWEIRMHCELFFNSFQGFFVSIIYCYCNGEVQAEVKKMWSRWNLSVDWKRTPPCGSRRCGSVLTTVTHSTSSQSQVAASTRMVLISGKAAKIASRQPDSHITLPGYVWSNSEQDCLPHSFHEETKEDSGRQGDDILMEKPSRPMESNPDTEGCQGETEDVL
From the text: as §1, §2

hPTH-1 receptors [4] = target: T1, hPTH-1 receptors; assay: phospholipase C (PLC) activity in HKRK-B7 cells; type: cell-based; set-up: expressed in transfected cells; settings: about 1 million hPTH-1 receptors per cell, 1000 nM (FIG. 4)
From the text: as §3
PLC was activated by PTH agonists in the presence of 30 mM LiCl at 37° C. for 30 min after 16 hr of labeling with [^3H]myo-inositol (3uCi/ml) in serum-free medium containing 0.1% bovine serum albumin. The reactions were stopped by rapid aspiration and addition of cold 5% TCA. Water-soluble radiolabeled inositol trisphosphate (IP3) was isolated after ether extraction by ion-exchange chromatography (Guo, J., et al., Endocrinology 136(9):3884-3891 (1995)). In experiments involving HEK 293 cells, cells previously transfected with human PTHR cDNA (in the pcDNA1 expression vector HKRK) using Lipofectamine (Gibco BRL) were labeled with [^3H]myo-inositol and assayed as described above, except that total water-soluble [^3H]inositol polyphosphates were collected as a single fraction from the ion-exchange columns.

hPTH-1 receptors [5] = target: T1, hPTH-1 receptors; assay: radioligand competition binding to HKRK B28 cells; set-up: expressed in transfected cells; settings: HKRK B28 cells; average level
Experimental: (§4) Radioligand competition binding assays were performed at 2-8° C. for 6 hr using ^125I-[Nle^8,21]rat PTH-(1-34) (100,000 cpm/well) in the presence or absence of non-radioactive hPTH-(1-34) analogs. Cell layers were washed three times before solubilization for determination of cell-associated radioactivity.

hPTH-1 receptors [6] = target: T1, hPTH-1 receptors; assay: radioligand binding to HKRK C53 cells; set-up: expressed in transfected cells; settings: average level
From the text: as §3, §4

hPTH-2 receptors [7] = target: T2, hPTH-2 receptors; assay: cAMP accumulation in HPR2-22 cells; type: cell-based; settings: average level
From the text: as §3, with “The HPR2-27 and HPR2-22 cell lines were created in the same fashion as the HKRK cells but employing instead type 2 PTH receptor cDNA using the transfection technique of (Bringhurst, F. R., et al., Endocrinology 132(5):2090-2098 (1993); Guo, J., et al., Endocrinology 136(9):3884-3891 (1995)).” left out
as §2

hPTH-2 receptors [8] = target: T2, hPTH-2 receptors; assay: radioligand competition binding to HPR2-7 cells; settings: average level
Experimental: as §4

hPTH-1 receptors [9] = target: T1, hPTH-1 receptors; assay: cAMP accumulation in HKRK B28 cells; type: cell-based; set-up: expressed in transfected cells; settings: average level
Experimental: as §2

CC[C@H](C)[C@H](NC(=O)[C@H](CCC(=O)O)NC(=O)[C@H](CO)NC(=O)[C@@H](NC(=O)[C@@H](N)CO)C(C)C)C(=O)N[C@@H](CCC(N)=O)C(=O)N[C@@H](CC(C)C)C(=O)N[C@@H](CCSC)C(=O)N[C@@H](Cc1c[nH]cn1)C(=O)N[C@@H](CC(N)=O)C(=O)N[C@@H](CC(C)C)C(=O)NCC(=O)N[C@@H](CCCCN)C(=O)N[C@@H](Cc1c[nH]cn1)C(=O)N[C@@H](CC(C)C)C(=O)N[C@@H](CC(N)=O)C(=O)N[C@@H](CO)C(=O)N[C@@H](CCSC)C(=O)N[C@@H](CCC(=O)O)C(=O)N[C@@H](CCCNC(=N)N)C(=O)N[C@H](C(=O)N[C@@H](CCC(=O)O)C(=O)N[C@@H](Cc1c[nH]c2ccccc12)C(=O)N[C@@H](CC(C)C)C(=O)N[C@@H](CCCNC(=N)N)C(=O)N[C@@H](CCCCN)C(=O)N[C@@H](CCCCN)C(=O)N[C@@H](CC(C)C)C(=O)N[C@@H](CCC(N)=O)C(=O)N[C@@H](CC(=O)O)C(=O)N[C@H](C(=O)N[C@@H](Cc1c[nH]cn1)C(=O)N[C@@H](CC(N)=O)C(=O)N[C@@H](Cc1ccccc1)C(N)=O)C(C)C)C(C)C [hPTH(1-34)NH2]
cAMP accumulation in the presence of maximal concentrations of peptide (hPTH-1 receptors [1]): 207±37 pmoles/well/15 min | IP3 formation in the presence of maximal concentrations of peptide (hPTH-1 receptors [2]): 1908±251 cpm/well | cAMP accumulation in the presence of maximal concentrations of peptide (hPTH-2 receptors [3]): 133±14 pmoles/well/15 min | activation of PLC (hPTH-1 receptors [4]): fill agonists | binding in the presence of maximal concentrations of peptide (hPTH-1 receptors [5]): 16,137±919 cpm/well | binding in the presence of maximal concentrations of peptide (hPTH-1 receptors [6]): 956±135 cpm/well | cAMP accumulation in the presence of maximal concentrations of peptide (hPTH-2 receptors [7]): 286±8 pmoles/well/15 min | binding in the presence of maximal concentrations of peptide (hPTH-2 receptors [8]): 4541±386 cpm/well | cAMP accumulation in the presence of maximal concentrations of peptide (hPTH-1 receptors [9]): 337±55 pmoles/well/15 min
